Experimental data published in patent US6756371B1, “Phthalazinone derivatives as PDE4 inhibitors” (Altana Pharma AG, priority 1999, dated 2004).

What was measured:
PDE4 = assay: Inhibition of PDE4 activity (method of Bauer and Schwabe, adapted to microtitre plates); assay type: biochemical
Description: Inhibition f PDE 4 Activity
The activity test was carried out according to the method of Bauer and Schwabe, which was adapted to microtitre plates (Naunyn-Schmiederberg's Arch. Pharmacol. 311, 193-198. 1980). In this test, the PDE reaction is carried out in the first step. In a second step, the resultant 5′-nucleotide is cleaved to the uncharged nucleoside by a snake venom 5′-nucleotidase from Crotalus Atrox. In the third step, the nucleoside is separated from the remaining charged substrate on ion exchange columns. The columns are eluted directly into minivials using 2 ml of 30 mM ammonium formate (pH 6.0), to which a further 2 ml or scintillation fluid is added for counting.
The inhibitory values determined for the compounds according to the invention follow from the following table A, in which the numbers of the compounds correspond to the numbers of the examples.

Structure (SMILES) | melting point [°C] | Inhibition of PDE4 activity [measured as −logIC50 (mol/l)] (PDE4)
CCOc1ccc(C2=NN(c3ccc(C(=O)N4CCSCC4)cc3)C(=O)[C@H]3CC=CC[C@@H]23)cc1OCC (relative stereo) [compound 3, (cis)-4-(3,4-Diethoxyphenyl)-2-[4-(1-thiomorpholin-4-ylcarbonyl)phenyl]-4a,5,8,8a-tetrahydro-2H-phthalazin-1-one] | 104 to 106 | 7.82
CCOc1ccc(C2=NN(c3ccc(S(=O)(=O)N4CCOCC4)cc3)C(=O)C3CC=CCC23)cc1OCC (stereo not drawn) [compound 4, (cis)-4-(3,4-Diethoxyphenyl)-2-[4-(N-morpholinosulfonyl)phenyl]-4a,5,8,8a-tetrahydro-2H-phthalazin-1-one] | – | 9.22
COc1ccc(C2=NN(c3ccc(S(=O)(=O)N4CCOCC4)cc3)C(=O)C3CC=CCC23)c2c1OC(C)(C)C2 (stereo not drawn) [compound 5, (cis)-4-(2,3-Dihydro-2,2-dimethyl-7-methoxybenzofuran-4-yl)-2-[4(N-morpholinosulfonyl)phenyl]-4a,5,8,8a-tetrahydro-2H-phthalazin-1-one] | – | 9.71
COc1ccc(C2=NN(c3ccc(C(=O)N4CCOCC4)cc3)C(=O)C3CC=CCC23)c2c1OC(C)(C)C2 (stereo not drawn) [compound 2, (cis)-4-(2,3-Dihydro-2,2-dimethyl-7-methoxybenzofuran-4-yl)-2-[4-(N-morpholinocarbonyl)-phenyl]-4a,5,8,8a-tetrahydro-2H-phthalazin-1-one] | – | 8.77

Continued, in another order:

melting point [°C] | Structure (SMILES) | Inhibition of PDE4 activity [measured as −logIC50 (mol/l)] (PDE4)
186 to 187 | CCOc1ccc(C2=NN(c3ccc(C(=O)N4CCS(=O)(=O)CC4)cc3)C(=O)[C@H]3CC=CC[C@@H]23)cc1OCC (relative stereo) [compound 6, (cis)-4-(3,4-Diethoxyphenyl)-2-[4-(1,1-dioxothiomorpholin-4-ylcarbonyl)phenyl]-4a,5,8,8a-tetrahydro-2H-phthalazin-1-one] | 7.81
144 to 145 | CCOc1ccc(C2=NN(c3ccc(C(=O)N4CCOCC4)cc3)C(=O)C3CC=CCC23)cc1OCC (stereo not drawn) [compound 1, (cis)-4-(3,4-Diethoxyphenyl)-2-[4-(N-morpholinocarbonyl)phenyl]-4a,5,8,8a-tetrahydro-2H-phthalazin-1-one] | 7.99
